PubChem BioAssay (NCI)
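Growth conditions: 96-well plates. Treatment: test compound, 48 hours, 5 concentrations. Analysis: linear interpolation between bracketing concentrations; unreached endpoints set to highest concentration. GI50 marks 50% less growth. TGI: concentration producing complete growth inhibition.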

Columns and labels:
Test in all cases: inhibition of tumour cell growth, NCI panel, 48 h
SK-MEL-5 melanoma = tested on: SK-MEL-5 melanoma
CCRF-CEM leukemia = tested on: CCRF-CEM leukemia
MOLT-4 leukemia = tested on: MOLT-4 leukemia
UO-31 renal = tested on: UO-31 renal
ACHN renal = tested on: ACHN renal
SF-539 CNS = tested on: SF-539 CNS
HCC-2998 colon = tested on: HCC-2998 colon
NCI-H226 lung = tested on: NCI-H226 lung
A549 NSCLC = tested on: A549 NSCLC
UACC-62 melanoma = tested on: UACC-62 melanoma
SK-OV-3 ovarian = tested on: SK-OV-3 ovarian
HOP-92 NSCLC = tested on: HOP-92 NSCLC
NCI-H460 lung = tested on: NCI-H460 lung
MCF7 breast = tested on: MCF7 breast
RXF 393 renal = tested on: RXF 393 renal
OVCAR-3 ovarian = tested on: OVCAR-3 ovarian
SNB-19 CNS = tested on: SNB-19 CNS
NCI/ADR-RES ovarian = tested on: NCI/ADR-RES ovarian
SF-295 CNS = tested on: SF-295 CNS
SW-620 colon = tested on: SW-620 colon
LOX IMVI melanoma = tested on: LOX IMVI melanoma
DU-145 prostate = tested on: DU-145 prostate
BT-549 breast = tested on: BT-549 breast
NCI-H23 lung = tested on: NCI-H23 lung
MDA-MB-231 breast = tested on: MDA-MB-231 breast
T-47D breast = tested on: T-47D breast
OVCAR-8 ovarian = tested on: OVCAR-8 ovarian
U251 CNS = tested on: U251 CNS
KM12 colon = tested on: KM12 colon
EKVX NSCLC = tested on: EKVX NSCLC
A498 renal = tested on: A498 renal
CAKI-1 renal = tested on: CAKI-1 renal
RPMI-8226 leukemia = tested on: RPMI-8226 leukemia
PC-3 prostate = tested on: PC-3 prostate
SR leukemia = tested on: SR leukemia
SN12C renal = tested on: SN12C renal
MALME-3M melanoma = tested on: MALME-3M melanoma
MDA-MB-435 = tested on: MDA-MB-435
786-0 renal = tested on: 786-0 renal
UACC-257 melanoma = tested on: UACC-257 melanoma
HCT-116 colon = tested on: HCT-116 colon
M14 melanoma = tested on: M14 melanoma
HOP-62 NSCLC = tested on: HOP-62 NSCLC
HT29 colon = tested on: HT29 colon
K-562 leukemia = tested on: K-562 leukemia
SF-268 CNS = tested on: SF-268 CNS
HS 578T breast = tested on: HS 578T breast
HL-60(TB) leukemia = tested on: HL-60(TB) leukemia
HCT-15 colon = tested on: HCT-15 colon
SNB-75 CNS = tested on: SNB-75 CNS
SK-MEL-2 melanoma = tested on: SK-MEL-2 melanoma
COLO 205 colon = tested on: COLO 205 colon
OVCAR-5 ovarian = tested on: OVCAR-5 ovarian

## NCCCn1c2c(c3ccc([N+](=O)[O-])cc3c1=O)C(=O)c1cc(I)ccc1-2
SK-MEL-5 melanoma
  GI50: 172 nM
  TGI: 1450 nM
CCRF-CEM leukemia
  GI50: < 10 nM
  TGI: 279 nM
MOLT-4 leukemia
  GI50: < 10 nM
  TGI: 251 nM
UO-31 renal
  GI50: 27.3 nM
  TGI: 1500 nM
ACHN renal
  GI50: < 17.9 nM
  TGI: 1290 nM
SF-539 CNS
  GI50: 43.5 nM
  TGI: 1210 nM
HCC-2998 colon
  GI50: 307 nM
  TGI: 1710 nM
NCI-H226 lung
  GI50: 786 nM
  TGI: 26200 nM
A549 NSCLC
  GI50: 13.3 nM
  TGI: 1740 nM
UACC-62 melanoma
  GI50: < 10 nM
  TGI: 1210 nM
SK-OV-3 ovarian
  GI50: 82.5 nM
  TGI: 6500 nM
HOP-92 NSCLC
  GI50: 650 nM
  TGI: 2250 nM
NCI-H460 lung
  GI50: < 10 nM
  TGI: 1310 nM
MCF7 breast
  GI50: < 10 nM
  TGI: 517 nM
RXF 393 renal
  GI50: 503 nM
  TGI: 2280 nM
OVCAR-3 ovarian
  GI50: 1190 nM
  TGI: 2900 nM
SNB-19 CNS
  GI50: < 10 nM
  TGI: 1610 nM
NCI/ADR-RES ovarian
  GI50: 41.6 nM
  TGI: 1880 nM
SF-295 CNS
  GI50: < 21.8 nM
  TGI: 1530 nM
SW-620 colon
  GI50: < 10 nM
  TGI: 1760 nM
LOX IMVI melanoma
  GI50: < 10 nM
  TGI: 1390 nM
DU-145 prostate
  GI50: < 10 nM
  TGI: 118 nM
BT-549 breast
  GI50: 931 nM
  TGI: 2510 nM
NCI-H23 lung
  GI50: 34.3 nM
  TGI: 1220 nM
MDA-MB-231 breast
  GI50: 1800 nM
  TGI: 3480 nM
T-47D breast
  GI50: 44.6 nM
  TGI: 2080 nM
OVCAR-8 ovarian
  GI50: 26.8 nM
  TGI: 234 nM
U251 CNS
  GI50: < 10 nM
  TGI: 1390 nM
KM12 colon
  GI50: 127 nM
  TGI: 1310 nM
EKVX NSCLC
  GI50: 790 nM
  TGI: 2320 nM
A498 renal
  GI50: 3020 nM
  TGI: 7720 nM
CAKI-1 renal
  GI50: 75.8 nM
  TGI: 1980 nM
RPMI-8226 leukemia
  GI50: 21.8 nM
  TGI: 265 nM
PC-3 prostate
  GI50: 563 nM
  TGI: 2070 nM
SR leukemia
  GI50: < 10 nM
  TGI: 929 nM
SN12C renal
  GI50: < 23.4 nM
  TGI: 1780 nM
MALME-3M melanoma
  GI50: 228 nM
  TGI: 1860 nM
MDA-MB-435
  GI50: 223 nM
  TGI: 1850 nM
786-0 renal
  GI50: 21 nM
  TGI: 1140 nM
UACC-257 melanoma
  GI50: 1100 nM
  TGI: 2550 nM
HCT-116 colon
  GI50: < 10 nM
  TGI: 201 nM
M14 melanoma
  GI50: 31.5 nM
  TGI: 1320 nM
HOP-62 NSCLC
  GI50: 21.1 nM
  TGI: 1750 nM
HT29 colon
  GI50: 95.1 nM
  TGI: 352 nM
K-562 leukemia
  GI50: < 14.7 nM
  TGI: 196 nM
SF-268 CNS
  GI50: 84.1 nM
  TGI: 3430 nM
HS 578T breast
  GI50: 1980 nM
  TGI: 4330 nM
HL-60(TB) leukemia
  GI50: < 17.6 nM
  TGI: 73.3 nM
HCT-15 colon
  GI50: 170 nM
  TGI: 1790 nM
SNB-75 CNS
  GI50: 950 nM
  TGI: 3900 nM
SK-MEL-2 melanoma
  GI50: 649 nM
  TGI: 2280 nM
COLO 205 colon
  GI50: 1020 nM
  TGI: 2440 nM
OVCAR-5 ovarian
  GI50: 556 nM
  TGI: 1950 nM
